These results are taken from US8778951B2, “Heteroaryl compounds and their uses” (Novartis AG, priority 2009, dated 2014).

pIC50: −log10 of the molar value.

For the experiment, the target named is Cdk9/cyclinT1 (Homo sapiens (Human), UniProt P50750). The experiment is described as follows: Cdk9/CyclinT1 IMAP Protocol (fluorescence polarization kinase assay). It counts as biochemical. Particulars: Table 2; generated using one of the two Cdk9/cyclinT1 assays (IMAP or Alpha Screen), not specified which; unit inferred. The method, boiled down: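 Reaction used 4 nM Cdk9/cyclinT1, 100 nM 5TAMRA-cdk7tide peptide and 6 uM ATP in 100 mM Tris pH 7.2 with MgCl2, 0.01% Tween-20, 1 mM DTT and 2.5% DMSO, running 4.5 h. Phosphopeptide was captured by IMAP binding reagent for >1 h, then read by fluorescence polarization (ex 531/em 595 nm).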
Sequence of Cdk9/cyclinT1 (P50750 whole entry): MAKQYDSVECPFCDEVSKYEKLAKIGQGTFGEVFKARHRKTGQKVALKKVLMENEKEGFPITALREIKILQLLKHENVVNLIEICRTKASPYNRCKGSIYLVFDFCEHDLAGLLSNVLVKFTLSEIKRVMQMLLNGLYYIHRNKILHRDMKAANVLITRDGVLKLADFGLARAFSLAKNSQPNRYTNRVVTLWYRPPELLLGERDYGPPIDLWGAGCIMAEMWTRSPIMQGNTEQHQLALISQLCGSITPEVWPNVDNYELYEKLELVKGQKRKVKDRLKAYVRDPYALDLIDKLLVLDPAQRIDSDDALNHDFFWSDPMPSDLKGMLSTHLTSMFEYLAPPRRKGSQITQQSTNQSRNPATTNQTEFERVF
Sequence of Cdk9/cyclinT1 (O60563 whole entry partner): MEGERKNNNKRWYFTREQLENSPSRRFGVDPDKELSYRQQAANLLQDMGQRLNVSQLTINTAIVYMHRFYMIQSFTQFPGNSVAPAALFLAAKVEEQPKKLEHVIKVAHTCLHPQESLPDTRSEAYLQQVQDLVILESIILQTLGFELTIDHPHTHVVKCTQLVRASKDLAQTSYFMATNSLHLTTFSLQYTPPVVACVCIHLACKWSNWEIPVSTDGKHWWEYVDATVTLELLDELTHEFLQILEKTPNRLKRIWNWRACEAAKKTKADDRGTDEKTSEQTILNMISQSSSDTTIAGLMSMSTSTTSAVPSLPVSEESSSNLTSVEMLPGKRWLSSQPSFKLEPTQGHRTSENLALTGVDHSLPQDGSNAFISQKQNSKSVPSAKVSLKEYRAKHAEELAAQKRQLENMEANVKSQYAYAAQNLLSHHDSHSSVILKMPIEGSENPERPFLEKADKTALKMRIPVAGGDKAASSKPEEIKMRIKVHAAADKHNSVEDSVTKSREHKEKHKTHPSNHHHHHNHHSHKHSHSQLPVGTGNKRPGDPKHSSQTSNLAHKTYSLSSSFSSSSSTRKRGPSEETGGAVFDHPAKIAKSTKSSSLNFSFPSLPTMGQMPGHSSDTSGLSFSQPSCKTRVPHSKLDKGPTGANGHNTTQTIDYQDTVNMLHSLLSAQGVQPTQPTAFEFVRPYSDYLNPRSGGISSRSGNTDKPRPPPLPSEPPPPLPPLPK
Broadly, the pIC50 is the negative decadic logarithm of the IC50, by convention in mol/L. Lower therefore signals a high IC50. `N[C@H]1CC[C@H](Nc2cc(-c3nc(NCC4CCOCC4)c(Cl)cc3Cl)c(Cl)cn2)CC1` [Compound 266, N2′-(trans-4-aminocyclohexyl)-3,5,5′-trichloro-N6-((tetrahydro-2H-pyran-4-yl)methyl)-2,4′-bipyridine-2′,6-diamine] showed a pIC50 of 8.10.
In the case of `NC[C@H]1CC[C@H](Nc2cc(-c3cccc(NCc4cccc(OC(F)F)c4)n3)c(Cl)cn2)CC1` [Compound 64], the negative logarithm of the IC50 (pIC50) is 7.26.
The same measure for `COCCN(C)[C@H]1CC[C@H](Nc2cc(-c3nc(NCC4CCOCC4)ccc3Cl)c(Cl)cn2)CC1` [Compound 272, 3,5′-dichloro-N2′-(trans-4-((2-methoxyethyl)(methyl)amino)cyclohexyl)-N6-((tetrahydro-2H-pyran-4-yl)methyl)-2,4′-bipyridine-2′,6-diamine]: 8.10; for `N[C@H]1CC[C@H](Nc2cc(-c3cccc(NCc4ccc(OC(F)(F)F)cc4)n3)c(Cl)cn2)CC1` [Compound 54]: 7.64.
`Fc1ccc(-c2cc(N[C@H]3CC[C@H](NCC4CCO4)CC3)ncc2Cl)nc1NCC1CCOCC1` (stereo partly drawn) [Compound 324, 5′-chloro-5-fluoro-N2′-(trans-4-(oxetan-2-yl-methylamino)cyclohexyl)-N6-((tetrahydro-2H-pyran-4-yl)methyl)-2,4′-bipyridine-2′,6-diamine] had a pIC50 of 8.70.
In turn, `COCCN[C@H]1CC[C@H](Nc2cc(-c3cccc(NCc4cccc(F)c4)n3)c(Cl)cn2)CC1` [Compound 157] gave a negative logarithm of the IC50 (pIC50) of 8.10.
With `Clc1ccc(NCC2CCOCC2)nc1-c1ccnc(N[C@H]2CC[C@H](NC[C@H]3CCCO3)CC2)c1` [Compound 273], the negative-log IC50 (pIC50) is 7.64.
Turning to `CN(CC1CCOCC1)c1cncc(-c2cc(N[C@H]3CC[C@H](N)CC3)ncc2Cl)n1` [Compound 248], the pIC50 is 7.98.
`N[C@H]1CC[C@H](Nc2ncc(Cl)c(-c3cccc(NCc4ccncc4)n3)n2)CC1` [Compound 35] showed a pIC50 of 7.25.
The same measure for `O=C(c1cccnc1)N1CCC(Nc2cc(-c3cccc(NCc4cccc(F)c4)n3)c(Cl)cn2)CC1` [Compound 87]: 7.16; for `CN1CCC[C@H]1C(=O)NC[C@H]1CC[C@H](Nc2cc(-c3cccc(NCc4cccc(F)c4)n3)c(Cl)cn2)CC1` [Compound 83]: 7.93; for `CC1(CNc2nc(-c3cc(NC4CCC(NC5CS(=O)(=O)C5)CC4)ncc3Cl)ccc2F)CCOCC1` (stereo not drawn) [Compound 347]: 9.00.
Regarding `Fc1cccc(CNc2cccc(-c3cc(NC4CCNCC4)ncc3Cl)n2)c1` [Compound 5, 5′-chloro-N6-(3-fluorobenzyl)-N2′-(piperidin-4-yl)-2,4′-bipyridine-2′,6-diamine], the negative-log IC50 (pIC50) was 7.40.
`N[C@H]1CC[C@H](Nc2cc(-c3cccc(NCc4cc(F)cc(F)c4)n3)c(Cl)cn2)CC1` [Compound 29] had a negative-log IC50 (pIC50) of 8.10. Against the preceding compound, the pIC50 is 0.70 log units higher.
For `N[C@H]1CC[C@H](Nc2cc(-c3cccc(NCc4cccc(F)c4)n3)ccn2)CC1` [Compound 32], the negative-log IC50 (pIC50) is 7.82. Compared with the last compound, the pIC50 is 0.28 log units lower.
In turn, `NC[C@H]1CC[C@H](Nc2cc(-c3cccc(NCc4ccccc4)n3)c(Cl)cn2)CC1` [Compound 57] had a negative logarithm of the IC50 (pIC50) of 7.49.
With `N[C@H]1CC[C@H](Nc2cc(-c3cccc(NCc4cccc(O)c4)n3)c(Cl)cn2)CC1` [Compound 49], the negative logarithm of the IC50 (pIC50) was 7.84. Against the preceding compound, the pIC50 is 0.35 log units higher.
With `Fc1cccc(CNc2cccc(-c3cc(N[C@H]4CCCOC4)ncc3Cl)n2)c1` [Compound 150], the pIC50 is 5.19.
The compound `O[C@H]1CC[C@H](Nc2cc(-c3cccc(N4CCOCC4)n3)c(Cl)cn2)CC1` [Compound 131] showed a negative logarithm of the IC50 (pIC50) of 6.33.
Compound `NCC(O)CNc1cc(-c2cccc(NCc3cccc(F)c3)n2)c(Cl)cn1` (stereo not drawn) [Compound 195] showed a negative logarithm of the IC50 (pIC50) of 7.45.
Turning to `CS(=O)(=O)CCN[C@H]1CC[C@H](Nc2cc(-c3nc(NCC4CCOCC4)ccc3Cl)c(Cl)cn2)CC1` [Compound 254, 3,5′-dichloro-N2′-(trans-4-(2-(methylsulfonyl)ethylamino)cyclohexyl)-N6-((tetrahydro-2H-pyran-4-yl)methyl)-2,4′-bipyridine-2′,6-diamine], the negative-log IC50 (pIC50) is 8.08.
The compound `CC(=O)N1CCC[C@@H](CNc2cccc(-c3ccnc(N[C@H]4CC[C@H](N)CC4)c3)n2)C1` [Compound 218] showed a pIC50 of 6.89.
With `CCS(=O)(=O)N[C@H]1CC[C@H](Nc2cc(-c3cccc(NCc4cccc(F)c4)n3)c(Cl)cn2)CC1` [Compound 78], the negative logarithm of the IC50 (pIC50) was 7.62.
`NC[C@H]1CC[C@H](Nc2cc(-c3cccc(OCc4cccc(F)c4)n3)c(Cl)cn2)CC1` [Compound 9, N-(trans-4-(aminomethyl)cyclohexyl)-5′-chloro-6-(3-fluorobenzyloxy)-2,4′-bipyridin-2′-amine] had a pIC50 of 8.10.
Compound `N[C@H]1CC[C@H](Nc2cc(-c3cccc(NCc4ccccc4F)n3)c(Cl)cn2)CC1` [Compound 41] had a negative logarithm of the IC50 (pIC50) of 7.89.
For `N[C@H]1CC[C@H](Nc2cc(-c3ccc(F)c(NCC4CCOCC4)n3)c(Cl)cn2)CC1` [Compound 269, N2′-(trans-4-aminocyclohexyl)-5′-chloro-5-fluoro-N6-((tetrahydro-2H-pyran-4-yl)methyl)-2,4′-bipyridine-2′,6-diamine], the negative-log IC50 (pIC50) was 8.10. This pIC50 lies 0.21 log units higher than the previous one.
In turn, `COC[C@@H](C)N[C@H]1CC[C@H](Nc2cc(-c3nc(NCC4CCOCC4)ccc3C(F)(F)F)c(Cl)cn2)CC1` [Compound 309] gave a pIC50 of 7.46. Compared with the last compound, the pIC50 is 0.64 log units lower.
The compound `CN(CC1CCOCC1)c1cncc(-c2cc(N[C@H]3CC[C@H](CN)CC3)ncc2Cl)n1` [Compound 249, 6-(2-(trans-4-(aminomethyl)cyclohexylamino)-5-chloropyridin-4-yl)-N-methyl-N-((tetrahydro-2H-pyran-4-yl)methyl)pyrazin-2-amine] had a pIC50 of 7.50.
As for `Fc1cccc(CNc2cccc(-c3cc(NCCC4CCOCC4)ncc3Cl)n2)c1` [Compound 174], the pIC50 is 7.54.
For the compound `O[C@H]1CC[C@H](Nc2cc(-c3cccc(NCc4cccc(F)c4)n3)c(Cl)cn2)CC1` [Compound 114], the negative-log IC50 (pIC50) was 8.10. Compared with the last compound, the pIC50 is 0.56 log units higher.
The same measure for `CN(CC1CCOCC1)c1cncc(-c2cc(N[C@H]3CC[C@H](O)CC3)ncc2Cl)n1` [Compound 250]: 7.55.
In the case of `Fc1cncc(CNc2cccc(-c3cc(NC4CCNCC4)ncc3Cl)n2)c1` [Compound 70], the negative-log IC50 (pIC50) was 6.76.
The same measure for `COc1cnc(N[C@H]2CC[C@H](N)CC2)cc1-c1cccc(NCc2cccc(F)c2)n1` [Compound 180, N2′-(trans-4-aminocyclohexyl)-N6-(3-fluorobenzyl)-5′-methoxy-2,4′-bipyridine-2′,6-diamine]: 7.92.
In the case of `C[C@H]1C[C@@H](Nc2cc(-c3cccc(NCc4cccc(F)c4)n3)c(Cl)cn2)CC[C@@H]1N` (stereo in doubt) [Compound 152], the negative logarithm of the IC50 (pIC50) is 7.57.
Consider `COC[C@@H](C)N[C@H]1CC[C@H](Nc2cc(-c3nc(NCC4CCCCO4)ccc3Cl)c(Cl)cn2)CC1` (stereo in doubt) [Compound 321, 3,5′-dichloro-N2′-(trans-4-((R)-1-methoxypropan-2-yl-amino)cyclohexyl)-N6-(((S)-tetrahydro-2H-pyran-2-yl)methyl)-2,4′-bipyridine-2′,6-diamine], for which the negative-log IC50 (pIC50) is 7.96.
Regarding `Clc1cnc(N[C@@H]2CCCNC2)cc1-c1cccc(NCc2ccncc2)n1` [Compound 93], the pIC50 is 6.03.
Under `Fc1cccc(CNc2cccc(-c3cc(N[C@H]4CC[C@H](N5CCCCC5)CC4)ncc3Cl)n2)c1` [Compound 115] stands 8.10.
As for `NCCNc1cccc(-c2cc(N[C@H]3CC[C@H](O)CC3)ncc2Cl)n1` [Compound 117], the pIC50 is 6.91.
Compound `Cc1ccc(CNc2cccc(-c3cc(N[C@H]4CC[C@H](N)CC4)ncc3Cl)n2)cc1` [Compound 51] showed a pIC50 of 7.76.
Compound `N[C@H]1CC[C@H](Nc2cc(-c3cccc(NCc4cccc(Cl)c4)n3)c(Cl)cn2)CC1` [Compound 37] had a pIC50 of 8.10. This pIC50 lies 0.34 log units higher than the previous one.
Consider `CC1(C)C[C@@H](CNc2cccc(-c3cc(N[C@H]4CC[C@H](N)CC4)ncc3Cl)n2)CCO1` (single isomer, unassigned) [Compound 257], for which the pIC50 is 8.10.
The compound `OCCCCNc1cc(-c2cccc(NCc3cccc(F)c3)n2)c(Cl)cn1` [Compound 186] gave a negative-log IC50 (pIC50) of 8.10.
Under `O[C@H]1CC[C@H](Nc2cc(-c3cccc(NCC4CCOCC4)n3)c(Cl)cn2)CC1` [Compound 126] stands 7.48; under `Clc1cnc(N[C@H]2CCCNC2)cc1-c1cccc(NCC2CCOCC2)n1` [Compound 96], 5.89; under `N[C@H]1CC[C@H](Nc2ncc(Cl)c(-c3cccc(NCc4cccc(F)c4)n3)n2)CC1` [Compound 34], 7.32.
With `Clc1cnc(NC[C@@H]2CCCN2)cc1-c1cccc(NCC2CCOCC2)n1` [Compound 304], the pIC50 was 5.21.
In the case of `OCCNc1cc(-c2cccc(NCc3cccc(F)c3)n2)c(Cl)cn1` [Compound 160], the pIC50 is 7.72.
`Fc1cccc(CNc2cccc(-c3cc(NC4CCC(F)(F)CC4)ncc3Cl)n2)c1` [Compound 149] showed a negative-log IC50 (pIC50) of 6.29.
Regarding `O[C@H]1CC[C@H](Nc2cc(-c3cccc(NCC4CCCCC4)n3)c(Cl)cn2)CC1` [Compound 132], the pIC50 was 7.84.
`O[C@H]1CC[C@H](Nc2cc(-c3cccc(NC[C@H]4CCCNC4)n3)c(Cl)cn2)CC1` [Compound 121] had a pIC50 of 4.98.
The same measure for `CN1CCN(CCNc2cc(-c3cccc(NCc4cccc(F)c4)n3)c(Cl)cn2)CC1` [Compound 170]: 7.36; for `NC(=O)c1ccc(-c2cc(N[C@H]3CC[C@H](N)CC3)ncc2Cl)nc1NCc1cccc(F)c1` [Compound 14, 2′-((1r,4r)-4-aminocyclohexylamino)-5′-chloro-6-(3-fluorobenzylamino)-2,4′-bipyridine-5-carboxamide]: 6.28; for `CN1CCC(CNc2cc(-c3cccc(NCc4cccc(F)c4)n3)c(Cl)cn2)CC1` [Compound 163]: 7.89.
`Clc1cnc(NC2CCNCC2)cc1-c1cccc(NCC2CCCCC2)n1` [Compound 68]: the pIC50 is 6.56.
